US20120088896A1, “DRUG FOR INHIBITING LECTIN-LIKE OXIDIZED LDL RECEPTOR AND DRUG FOR PREVENTING ARTERIOSCLEROSIS” (NATIONAL CEREBRAL AND CARDIOVASCULAR CENTER, priority 2009, published 2012)

Tests used:
[1] = target: T1, TetOn hLOX-1 CHO cells (human LOX-1) (Homo sapiens, UniProt P78380); test: Binding of DiI-labeled oxidized LDL to LOX-1 expressing cells under low temperature conditions; format: cell-based; conditions: trimeric procyanidins of different structure at 0.1 μg/ml, on ice; Example 5
T1 construct: expressed in transfected cells
Description: It is said that caveola or clathrin is also involved in the incorporation of oxidized LDL into the cells, in addition to that mediated by LOX-1.
First, 100 μl of the suspension of LOX-1 expressing cells adjusted with the above culture medium so as to achieve a density of 1×10^5 cells/ml was dispensed into each well of a 96-well plate (manufactured by Costar, Product Number: 3603). In addition, in order to induce the expression of LOX-1, doxycycline (manufactured by Calbiochem) was added so that the final concentration thereof was 1 μg/ml. As a control, a well where no doxycycline was added so that no expression was induced was also prepared. This 96-well plate was incubated at 37° C. for 24 hours in a CO2 incubator, and each well was then washed with the aforementioned FBS(−) medium cooled to 4° C. […]
This 96-well plate was observed using the In Cell Analyzer 1000 system (manufactured by GE healthcare) to measure the DiI fluorescence intensity and the number of nuclei per each well, and the fluorescence intensity per single cell was determined in the same manner as in Example 2.
Further, the oxidized LDL binding rate (%) was calculated by the following formula (3). […]
Subsequently, the effects of these four types of trimeric procyanidins on the inhibition of the bonding between LOX-1 and oxidized LDL were evaluated. […]

ex-hLOX-1 protein = target: T2, ex-hLOX-1 protein (Homo sapiens, UniProt P78380); test: BIACORE measurement of direct bonding of procyanidins and LOX-1; conditions: monomers to heptamers at 20 μM; peak 3 trimers at 1.25-20 μM; 120 s binding, 120 s dissociation; read-out: Dissociation Constant
T2 construct: IgK secretion signal (printed 'IgK selection signal') (N, cleaved yes); His tag (from vector pSecTag/FRT/V5His); made in house; host or cells: 293F cells (FreeStyle 293 Expression System)
Description: The direct bonding of procyanidins and LOX-1 was evaluated using the BIACORE system.
LOX-1 was fixed on a sensor chip, and the BIACORE measurement was carried out using the procyanidins as the liquid phase. The BIACORE measurements and analyses were conducted using the BIACORE 2000 (GE Healthcare). In addition, the sensor chip CM5 was used as a sensor chip, and the ex-hLOX-1 protein was immobilized on the sensor chip by employing the amine coupling method. A HEPES solution (consisted of 10 mM HEPES, 150 mM NaCl and 2 mM CaCl2) was degassed and used as the running buffer.
Among the procyanidins made to flow through the chip, monomeric to heptameric procyanidins were each adjusted to 20 μM using the running buffer and used for the measurement.
In addition, when the procyanidins were reacted in the sensor chip, the flow rate was set to 20 μl/min, and the dissociation constant was measured with 120 seconds of binding and 120 seconds of dissociation.

| Compound | oxidized LDL binding rate (LOX-1 inhibiting activity) [1] | Kd (ex-hLOX-1 protein) [µM] |
| --- | --- | --- |
| Oc1cc(O)c2c(c1)O[C@H](c1ccc(O)c(O)c1)[C@H](O)[C@H]2c1c(O)cc2c(c1O)[C@H](c1c(O)cc(O)c3c1O[C@H](c1ccc(O)c(O)c1)[C@@H](O)C3)[C@@H](O)[C@@H](c1ccc(O)c(O)c1)O2 (single isomer, unassigned; peak 2) [peak 2, epi (4β → 6) epi (4β → 8) cat] | exhibited stronger LOX-1 inhibiting activities than the trimeric procyanidins represented by peaks 1 and 4 |  |
| Oc1cc(O)c2c(c1)O[C@H](c1ccc(O)c(O)c1)[C@H](O)[C@H]2c1c(O)cc2c(c1O)C(c1c(O)cc(O)c3c1O[C@H](c1ccc(O)c(O)c1)[C@H](O)C3)[C@@H](O)[C@@H](c1ccc(O)c(O)c1)O2 (single isomer, unassigned; peak 3) [peak 3, epi (4β → 6) epi (4β → 8) epi] | exhibited stronger LOX-1 inhibiting activities than the trimeric procyanidins represented by peaks 1 and 4 | 3.8 |
